Here are results for two compounds from patent US11318077B2, “Retinaldehyde containing compositions and methods of use” (RODAN & FIELDS, LLC, priority 2017, dated 2022).

Molecules are shown by their SMILES.

Data set [1] relates to melanin production in MelanoDerm™ skin substitute. Briefly: Melanin-modulatory effect in MelanoDerm skin substitutes (color measurement, melanin extraction). In kind it is cell-based. To be noted: 2%; 2 weeks. How it is done: Objective: The objective of this assay was to determine the ability of the test materials (dimethylisosorbide [DMI], retinoic acid [ATRA], 10% w/w NEAR-1 in dimethylisosorbide [NEAR-1], Niacinamide PC [NAD], and Kojic Acid [KA]) and combinations thereof to inhibit melanin production in MelanoDerm™ skin substitute model. The effect of these experimental conditions on the secretion of the proinflammatory cytokine IL-8 was also assessed, as a surrogate for skin irritation potential.
Tissues were equilibrated at 37° C. for 60 min. and undiluted samples (25 μl) of test materials were applied on top of tissues in duplicates. DMI and kojic acid were applied at 2.5% and 2% (w:v) respectively (dissolved in double distilled water). Tissue culture was pursued in the pigmentation-inducing medium EPI-100-NMM-113 for 14 days, with reapplication of test materials and changes of tissue culture media every 2-3 days.
At the end of the experiment, tissue pigmentation was quantified non-invasively with NS800 portable spectrophotometer (3NH Technology Co., Ltd., China). This instrument is a reflectance spectrophotometer that measures reflected light in the visible spectrum (range: 400-700 nm) recording colors in a three-dimensional space known as CIEL*a*b* color space. In this project, the L* value representing the lightness of the color was used for color assessment. For the purpose of this experiment, the range of the L* parameter spanned from 17.8 (black background) to 87.8 (white background).
For melanin quantification, the MelanoDerms were frozen, solubilized in Solvable™ (Perkin Elmer) and melanin was extracted at 95° C. overnight. The colorimetric signals proportional to the concentration of extracted melanin, as well as those proportional to the IL-8 in the tissue-conditioned medium in the ELISA test were quantified with Molecular Devices microplate spectrophotometer MAX190 at 490 nm and 405 nm.

Data set [2] concerns MelanoDerm tissues. Briefly: Cytotoxicity by microscopic observation of MelanoDerm tissues. In kind it is cell-based. To be noted: 2%; 2 weeks. The protocol:
Tissues were equilibrated at 37° C. for 60 min. and undiluted samples (25 μl) of test materials were applied on top of tissues in duplicates. DMI and kojic acid were applied at 2.5% and 2% (w:v) respectively (dissolved in double distilled water). Tissue culture was pursued in the pigmentation-inducing medium […]-113 for 14 days, with reapplication of test materials and changes of tissue culture media every 2-3 days. Results and Discussion: From the macroscopic documentation of all the MelanoDerm tissues at the end of the experiment, differences of color are clearly visible between the solvent controls and some test materials. Table 34 informs whether cytotoxicity may have played a role in these differences. Table 34 also reports the non-invasive MelanoDerm color measurement performed with portable spectrophotometer. [table]

Data set [3] deals with mild to moderate lines and wrinkles, dullness and moderate dyschromia. Briefly: Tolerability assessments (subjective and objective), IRS compared with 0.1% Adapalene, 12 weeks. The format is in vivo, human (women). To be noted: IRS vs 0.1% Adapalene. The source says:
(§1) The objective of the study is to evaluate and compare the anti-aging efficacy and tolerability of 0.1% Adapalene compared to Intensive Renewing Serum over a 12-week period when used by women with mild to moderate lines and wrinkles, dullness and moderate dyschromia.
Subjects reported to the facility at Baseline for Expert Grader assessments of various facial photoaging and irritation parameters, subjective assessments of facial irritation, digital imaging of the face, replica sampling of the crow's foot area, capacitance and firmness/elasticity measurements of the face and completed a self-assessment questionnaire. Subjects were randomized to receive 1 of 2 investigational products for treatment to the entire face for 12 weeks. Subjects returned to the lab at Week 2 and Week 4 to have Expert Grader assessments, digital imaging and self-assessments repeated. At Weeks 8 and 12, subjects returned for Expert Grader assessments, digital imaging, replica sampling, capacitance and firmness/elasticity measurements and self-assessments.
(§2) Expert Grader Assessments: In addition to screening and selecting the final panel, an Expert Grader assessed the face of each subject for various irritation and efficacy parameters at Baseline and after 2, 4, 8 and 12 weeks of treatment. The scale that was used for each assessment parameter (unless otherwise indicated) is: 0=none, 1-3=mild, 4-5=moderate, […].
Irritation parameters: The Expert Grader assessed the face of each subject at each time point for the following irritation parameters using a 0-9 scale: Erythema, Dryness, Scaling, and Edema. Using a 0-9 scale, subjects were asked to rate their amount of: Burning, Stinging, Itching, Tightness, and Dryness.
Treatment Procedures: approximately 20-25 subjects assigned to each product per randomization. After the Baseline assessments and measurements had been completed, the subjects reported to the Treatment Technician, who dispensed a new container of their assigned product to the subject and instructed the subject to apply the product according to the Sponsor's instructions below:
Product C: Morning instructions: Follow your regular morning skincare routine. Evening instructions: Product C should be used once daily in the evening, after your regular cleanser. Open a capsule by twisting off the tail end of one capsule. Apply the serum over your entire face, including under the eyes and crow's feet. […] Avoid getting into eyes, In case of inadvertent eye contact, rinse eyes with plenty of water to remove product from eyes. […] Use one capsule per night. Follow with the rest of your evening skin care Regimen. Note: make sure that no water gets into the jar and that your hands are dry before use. Please ensure the jar is tightly closed after each use.
Product N: Morning instructions: Follow your regular morning skincare routine. Evening instructions: Product N should be used once daily in the evening, after your regular cleanser. Clean the skin gently with your regular cleanser and pat dry before applying Product N. Cover the entire face, including under the eyes and crow's feet, with a thin layer. […] Avoid product contact with eyes, lips and mouth. If contact occurs, immediately flush the area with water. […] Wash hands after use. […] Follow with the rest of your evening skin care Regimen.

Data set [4] shares this test system. Briefly: Expert Grader clinical grading assessment of efficacy, IRS compared with 0.1% Adapalene. In kind it is in vivo, human (women).
Text: as §1, §2
(§3) Efficacy parameters: The assessments of efficacy were made using methods that would provide the Sponsor the most information on changes in the subject's skin over time. The methods that the Expert Grader used to assess efficacy are as follows: 1. Live Grading: Absolute scores from viewing the subject's face were assigned using a 0-9 scale. Live grades were conducted at each time point. 2. Baseline Aided Grading: Absolute scores from viewing the subject's face were assigned using a 0-9 scale at the Baseline visit and the Expert Grader used the subject's Baseline photo for reference at follow-up visits. Baseline aided grading was conducted at each time point other than at Baseline. 3. Comparison Grading from Photos: Comparison grading was performed after the conclusion of the study. The Expert Grader compared the photos from each time point to Baseline for improvement/worsening using the below scale: −4=Marked worsening, −3=Moderate worsening, −2=Mild worsening, −1=Barely perceptible worsening, −0.1=Forced choice worsening, 0=No change, 0.1=Forced choice improvement, 1=Barely perceptible improvement, 2=Mild improvement, 3=Moderate improvement, and 4=Marked improvement.
The following efficacy parameters were assessed by the Expert Grader along with the assessment method(s) are listed: 1. Skin Texture (softness/smoothness) [tactile]: Live grading, 2. Skin Texture [visual]: Live grading/Baseline aided, 3. Fine Lines (eye area including crow's feet): Live grading/Baseline aided/Comparison scores from photos, 4. Wrinkles (eye area, including crows feet): Live grading, Baseline aided, Comparison scores from photos, 5. Pore appearance: Comparison scores from photos, 6. Firmness: Live grading, 7. Sagging (nasolabial fold area): Comparison scores from photos, 8. Discrete hyperpigmentation: Comparison scores from photos, 9. Mottled hyperpigmentation: Comparison scores from photos, 10. Skin tone evenness: Comparison scores from photos, 11. Radiance/luminosity/glow (defined as Dull to luminous/shiny): Live grading, 12. Sallowness (sallow to rosy): Live grading/Baseline aided, 13. Overall healthy skin appearance: Comparison scores from photos, 14. Overall photodamage: Live grading/Baseline aided, 15. Pinch recoil (under the eye): Live grading (For this assessment, a 0-9 score will not be assigned. Per the Sponsor, the evaluator will pinch the subject's skin at the designated site using the thumb and forefinger and hold the skin in place for approximately 2 seconds. A stopwatch will be started upon release and the time required for the subject's skin to return to its original conformation will be measured to the nearest tenth of a second. A decrease in pinch recoil times over time indicates an improvement in skin “bounce-back” or elasticity/resiliency.). […]

Data set [5] has the same test system. Briefly: Comparison grading from photos, IRS compared with 0.1% Adapalene. The format is in vivo, human (women). How it is done:
as §3
The following efficacy parameters were assessed by the Expert Grader along with the assessment method(s) are listed: 1. Skin Texture (softness/smoothness) [tactile]: Live grading, 2. Skin Texture [visual]: Live grading/Baseline aided, 3. Fine Lines (eye area including crow's feet): Live grading/Baseline aided/Comparison scores from photos, 4. […] Pinch recoil (under the eye): Live grading (For this assessment, a 0-9 score will not be assigned. Per the Sponsor, the evaluator will pinch the subject's skin at the designated site using the thumb and forefinger and hold the skin in place for approximately 2 seconds. A stopwatch will be started upon release and the time required for the subject's skin to return to its original conformation will be measured to the nearest tenth of a second. A decrease in pinch recoil times over time indicates an improvement in skin “bounce-back” or elasticity/resiliency.). […]

For the compound `O=c1cc(CO)occ1O` [KA, Kojic Acid], in data set [1], the “Color measurement (whitening units)” value came out at 9.8 whitening units, the “Melanin Content” value stood at 38 µg/mL, the “Melanin Content (% control)” value turned out to be 38 % control and the “Raw *L values” turned out to be 55.3. The Cytotoxicity result in data set [2] is on record as “Yes”.

Turning to `COc1ccc(-c2ccc3cc(C(=O)O)ccc3c2)cc1C12CC3CC(CC(C3)C1)C2` [Adapalene, adapalene], in data set [3], the “Burning (subjective)” value is listed as “somewhat greater degree of perceived burning”; the “Dryness (objective, clinical)” value is recorded as “greater degree of tactile dryness”; the “Erythema (objective, clinical)” value is “somewhat greater degree of erythema”; the “Scaling (objective, clinical)” value is given as “greater degree of visual scaling”. Besides, in data set [3], the “Stinging (subjective)” value is “somewhat greater degree of perceived stinging”. Moreover, the “Dryness/Tightness (subjective)” value in data set [3] (most notably at Week 4) was “slightly greater perception of dryness/tightness”. In addition, in data set [4] (by weeks 8 & 12), the “Elasticity/Resiliency, clinical grading” value is “No improvement” and the “Skin Texture (Visual), clinical grading” value is reported as “slight improvement”. Further, the “Fine Lines, clinical grading” value in data set [4] (comparable first 4 weeks, mild improvements by week 8, course to week 12) is on record as “remains constant”. Besides, in data set [4] (over 12 weeks), the “Radiance/Luminosity/Glow, clinical grading” value is “Mild improvement persists through week 8” and the “Skin Texture (Tactile), clinical grading” value is recorded as “By week 12, no improvement”. Further, the “Photo comparison mean scores (overall)” value in data set [5] (IRS vs 0.1% Adapalene) is on record as “mean scores slightly favored Adapalene”. Also, in data set [5] (over 12 weeks), the “Discrete Hyperpigmentation, photo comparison” value was “slightly better results” and the “Mottled Hyperpigmentation, photo comparison” value was “progressive & slightly better result”.
